We go through one compound from ChEMBL document CHEMBL2073874, “The multidrug resistance transporter ABCG2 (breast cancer resistance protein 1) effluxes Hoechst 33342 and is overexpressed in hematopoietic stem cells” (Clin Cancer Res, 2002).

Structures are written as SMILES.

In the series the target is T1, Broad substrate specificity ATP-binding cassette transporter ABCG2 (Homo sapiens, UniProt Q9UNQ0).
T1 sequence (Q9UNQ0 whole entry): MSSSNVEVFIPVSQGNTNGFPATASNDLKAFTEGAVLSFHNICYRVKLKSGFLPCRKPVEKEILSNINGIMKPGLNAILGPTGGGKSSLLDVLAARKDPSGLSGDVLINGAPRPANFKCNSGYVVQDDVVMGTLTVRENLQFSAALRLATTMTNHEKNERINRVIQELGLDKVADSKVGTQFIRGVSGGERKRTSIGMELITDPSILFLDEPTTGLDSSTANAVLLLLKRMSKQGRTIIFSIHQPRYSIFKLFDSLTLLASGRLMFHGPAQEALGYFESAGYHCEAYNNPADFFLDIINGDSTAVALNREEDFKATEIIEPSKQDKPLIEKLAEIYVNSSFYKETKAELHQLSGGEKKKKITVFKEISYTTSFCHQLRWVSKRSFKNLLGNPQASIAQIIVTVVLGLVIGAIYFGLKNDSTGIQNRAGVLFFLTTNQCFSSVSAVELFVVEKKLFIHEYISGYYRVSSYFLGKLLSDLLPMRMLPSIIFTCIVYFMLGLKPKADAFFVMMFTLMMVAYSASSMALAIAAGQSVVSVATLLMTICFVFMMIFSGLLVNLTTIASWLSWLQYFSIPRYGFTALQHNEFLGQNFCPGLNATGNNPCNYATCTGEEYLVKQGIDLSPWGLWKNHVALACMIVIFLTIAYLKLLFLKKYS
In words: TP_TRANSPORTER: efflux in BCRP-expressing MCF-7 cells. In kind it is functional, cell-based. To be noted: mcf7.

On to `CCOc1ccc(-c2nc3cc(-c4nc5cc(N6CCN(C)CC6)ccc5[nH]4)ccc3[nH]2)cc1`, for which the Activity entry is “substrate [+]”.
